Assay results reported in patent US20220324913A1, “ANTIGENIC NEURON SPECIFIC ENOLASE PEPTIDES FOR DIAGNOSING AND TREATING AUTISM” (THE REGENTS OF THE UNIVERSITY OF CALIFORNIA, priority 2019, published 2022).
Entries after “also recorded” stand apart in the source; their conditions may differ.

Test system: maternal autoantibodies (plasma from mothers of ASD and TD children)
Assay: NSE 15-mer peptide microarray epitope mapping probed with maternal plasma
Type: binding, human
Conditions: for Specific binding: group whose antibodies recognize the sequence; for ASD + N = 19 (number of positive samples) / ASD + N = 8 (number of positive samples): mothers of ASD children; for ASD + N = 19 (number of positive samples) / TD + N = 10 (number of positive samples) / ASD + N = 8 (number of positive samples) / TD + N = 11 (number of positive samples): positive if FI >200; for TD + N = 10 (number of positive samples) / TD + N = 11 (number of positive samples): mothers of TD children

Row | Substance | Specific binding (ELISA positive samples) | ASD + N = 19 (number of positive samples) (ELISA positive samples) | TD + N = 10 (number of positive samples) (ELISA positive samples) | Specific binding (ELISA negative samples) | also measured
1 | 218 (GGFAPNILENSEALE; listed as Homo sapiens) [compound 218] | ASD | 3 | 0 | – | –
2 | 252 (DVAASEFYRDGKYDL; listed as Homo sapiens) [compound 252] | ASD | 3 | 0 | – | –
3 | 279 (TGDQLGALYQDFVRD; listed as Homo sapiens) [compound 279] | ASD | 5 | 0 | – | –
4 | 280 (GDQLGALYQDFVRDY; listed as Homo sapiens) [compound 280] | ASD | 3 | 0 | – | –
5 | 281 (DQLGALYQDFVRDYP; listed as Homo sapiens) [compound 281] | ASD | 3 | 0 | – | –
6 | 288 (QDFVRDYPVVSIEDP; listed as Homo sapiens) [compound 288] | – | – | – | ASD | ASD + N = 8 (number of positive samples) (ELISA negative samples): 3; TD + N = 11 (number of positive samples) (ELISA negative samples): 0
7 | 289 (DFVRDYPVVSIEDPF; listed as Homo sapiens) [compound 289] | ASD | 3 | 0 | – | –
8 | 290 (FVRDYPVVSIEDPFD; listed as Homo sapiens) [compound 290] | – | – | – | ASD and TD | ASD + N = 8 (number of positive samples) (ELISA negative samples): 3; TD + N = 11 (number of positive samples) (ELISA negative samples): 1
9 | 291 (VRDYPVVSIEDPFDQ; listed as Homo sapiens) [compound 291] | – | – | – | ASD and TD | ASD + N = 8 (number of positive samples) (ELISA negative samples): 4; TD + N = 11 (number of positive samples) (ELISA negative samples): 4
10 | 292 (RDYPVVSIEDPFDQD; listed as Homo sapiens) [compound 292] | – | – | – | ASD and TD | ASD + N = 8 (number of positive samples) (ELISA negative samples): 5; TD + N = 11 (number of positive samples) (ELISA negative samples): 2
11 | 293 (DYPVVSIEDPFDQDD; listed as Homo sapiens) [compound 293] | – | 6 | 4 | ASD and TD | ASD + N = 8 (number of positive samples) (ELISA negative samples): 6; TD + N = 11 (number of positive samples) (ELISA negative samples): 7
12 | 294 (YPVVSIEDPFDQDDW; listed as Homo sapiens) [compound 294] | – | 8 | 4 | ASD and TD | ASD + N = 8 (number of positive samples) (ELISA negative samples): 5; TD + N = 11 (number of positive samples) (ELISA negative samples): 7
13 | 295 (PVVSIEDPFDQDDWA; listed as Homo sapiens) [compound 295] | – | 5 | 2 | ASD and TD | ASD + N = 8 (number of positive samples) (ELISA negative samples): 4; TD + N = 11 (number of positive samples) (ELISA negative samples): 3
14 | 296 (VVSIEDPFDQDDWAA; listed as Homo sapiens) [compound 296] | – | 4 | 1 | ASD and TD | ASD + N = 8 (number of positive samples) (ELISA negative samples): 4; TD + N = 11 (number of positive samples) (ELISA negative samples): 2
15 | 297 (VSIEDPFDQDDWAAW; listed as Homo sapiens) [compound 297] | – | 4 | 1 | ASD and TD | ASD + N = 8 (number of positive samples) (ELISA negative samples): 2; TD + N = 11 (number of positive samples) (ELISA negative samples): 2
16 | 298 (SIEDPFDQDDWAAWS; listed as Homo sapiens) [compound 298] | ASD | 4 | 0 | – | –

Row | Substance | Specific binding (ELISA positive samples) | ASD + N = 19 (number of positive samples) (ELISA positive samples) | TD + N = 10 (number of positive samples) (ELISA positive samples) | Specific binding (ELISA negative samples) | also measured
17 | 299 (IEDPFDQDDWAAWSK; listed as Homo sapiens) [compound 299] | ASD | 2 | 0 | – | –
18 | 407 (RSERLAKYNQLMRIE; listed as Homo sapiens) [compound 407] | ASD | 3 | 0 | – | –
19 | 408 (SERLAKYNQLMRIEE; listed as Homo sapiens) [compound 408] | ASD | 6 | 0 | – | –
20 | 409 (ERLAKYNQLMRIEEE; listed as Homo sapiens) [compound 409] | ASD | 7 | 0 | – | –
21 | 410 (RLAKYNQLMRIEEEL; listed as Homo sapiens) [compound 410] | ASD | 5 | 0 | – | –
22 | 411 (LAKYNQLMRIEEELG; listed as Homo sapiens) [compound 411] | ASD | 3 | 0 | – | –
23 | 412 (AKYNQLMRIEEELGD; listed as Homo sapiens) [compound 412] | ASD | 3 | 0 | – | –
24 | 413 (KYNQLMRIEEELGDE; listed as Homo sapiens) [compound 413] | ASD | 3 | 0 | – | –
25 | 416 (QLMRIEEELGDEARF; listed as Homo sapiens) [compound 416] | ASD | 3 | 0 | – | –
26 | DYPVVSIEDPFDQDD (listed as Homo sapiens) [ES 293] | – | – | – | – | Specific binding (ELISA positive samples, listed as SEQ ID NO:7): recognized by plasma from both sample groups; also recorded: recognized by antibodies in both experimental groups
27 | PVVSIEDPFDQDDWA (listed as Homo sapiens) [ES 295] | – | – | – | – | Specific binding (ELISA positive samples, listed as SEQ ID NO:9): recognized by plasma from both sample groups; also recorded: recognized by antibodies in both experimental groups
28 | QDFVRDYPVVSIEDP (listed as Homo sapiens) [ES 288] | – | – | – | ASD-specific | –
29 | VSIEDPFDQDDWAAW (listed as Homo sapiens) [ES 297] | – | – | – | – | Specific binding (ELISA positive samples, listed as SEQ ID NO:11): recognized by plasma from both sample groups; also recorded: recognized by antibodies in both experimental groups
30 | VVSIEDPFDQDDWAA (listed as Homo sapiens) [ES 296] | – | – | – | – | Specific binding (ELISA positive samples, listed as SEQ ID NO:10): recognized by plasma from both sample groups; also recorded: recognized by antibodies in both experimental groups
31 | YPVVSIEDPFDQDDW (listed as Homo sapiens) [ES 294] | – | – | – | – | Specific binding (ELISA positive samples, listed as SEQ ID NO:8): recognized by plasma from both sample groups; also recorded: recognized by antibodies in both experimental groups
